Measurements from patent publication US20250057951A1, “DISCERNIBLE CELL SURFACE PROTEIN VARIANTS OF CD117 FOR USE IN CELL THERAPY” (UNIVERSITÄT BASEL, priority 2021, published 2025).
One block for each molecule: values may come before it.

Columns and labels:
[1] = system: antibody Refmab #1; experiment: Octet titration, steady state KD of CD117 D1-2-3 variants to Refmab #1; assay type: binding; details: nm shift higher than 0.1 nm counts as binding
Experimental: To further characterize binding of Refmab #1 to CD117 D1-2-3 variants E73K, E73L, E73R, E73Y, D121H, D121K, S123K and S123F, the analytes were titrated at 7 different concentrations (from 2000 nM to 5 nM). Antibody Refmab #1 was captured by AHC biosensors for 300 s at 0.5 to 1 μg/mL. Association and dissociation to Refmab #1 was extended to 600 s and 1000 s, respectively. Steady state analysis was performed.

[2] = system: antibody Refmab #1; experiment: Octet screen: binding of CD117 D1-2-3 variants to captured Refmab #1; details: nm shift at end of association, top analyte concentration (500 nM)
Procedure, shortened: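 Refmab #1 captured on anti-human Fc biosensors; human CD117 D1-2-3 wt or variants flowed as analyte at 500, 50 and 5 nM, 25° C., 300 s association/900 s dissociation, buffer-referenced. Binding level at top concentration, end of association, expressed as percent of wild type; 1:1 fits where possible.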

[3] = system: Refmab #1; experiment: Refmab #1 titration on engineered TF-1 cells (flow cytometry); assay type: binding; details: 5-0.00015 μg/mL antibody; 4° C.
Experimental: Binding of Refmab #1 was assessed in a flow cytometry assay. TF-1 cells were seeded at a cell concentration of 1,000,000 cells/ml in FACS Buffer (PBS+2% FCS+1 mM EDTA). After a Fc blocking using 1:20 diluted TruStain (BioLegend, #422302) in FACS buffer for 15 minutes at 4° C., cells were washed twice with FACS buffer. Subsequently, a SR-1 titration was added to the cells using 5-0.00015 μg/mL antibody for 30 minutes at 4° C. on a plate shaker. Cells were washed twice with FACS buffer and a secondary labelled antibody (IgG (H+L) Cross-Adsorbed Goat anti-Human, Alexa Fluor® 488, Invitrogen, A11013) was added to the cells for 30 minutes at 4° C. on a plate shaker. Cells were washed twice with FACS buffer, before adding 1:100 diluted solution of 7AAD staining (cell viability) in FACS buffer for a couple of minutes and analyzing the cells using the Novocyte Quanteon (Agilent).

[4] = system: TF-1 cells; experiment: SCF-dependent phosphorylation of CD117 variants in TF-1 cells (Tyr719 ELISA); assay type: cell-based, human; details: 1-20 ng/ml SCF for 5 minutes
Experimental: TF-1 cells (wild type, knock out, and variants E73K, D121K and S123K of CD117) were seeded at a concentration of 1 million cells/ml in 2 ml of Medium (RPMI1640 supplemented with GlutaMAX+10% heat inactivated FBS) in a 6-well plate. Cells were treated with 1-20 ng/ml recombinant human SCF (1 mg/ml PeproGMP Recombinant Human SCF) for 5 minutes, before cell collection. Cells were washed with ice-cold PBS, before resuspending cells in 500 μL Lysis Buffer (Lysis buffer from Signaling containing Protease Inhibitor and Phosphatase Inhibitor). Cells were flash frozen in liquid nitrogen and thawed at 37° C. twice, before freezing them at −80° C. until further usage. Undiluted samples were thawed and processed according to the manufacturers protocol for the PathScan Phospho-c-Kit (Tyr719) Sandwich ELISA Kit (Cell Signaling). Absorbance (OD_450 nm) was assessed using the Envision (Perkin Elmer).

[5] = system: TF-1 cells; experiment: SCF-dependent proliferation, SCF titration on TF-1 cells with CD117 variants (CellTiter-Glo); assay type: cell-based, human; details: for EC50 Average: average of two experiments; for EC50 Experiment #1 / EC50 Experiment #2: titration of SCF, 3 days, TF-1 cells with the CD117 variant
Experimental: In another experiment, SCF-dependent proliferation of variants E73K, E73Y, D121K, S123F and S123K was compared against wildtype CD117. TF-1 cells were seeded at a cell concentration of 150 000 cells/ml in sterile, white cell culture treated plates with transparent bottom in RPMI+GlutaMax+10% FCS. Cells were treated with a titration of SCF. After 3 days of incubation a CellTiter-Glo 2.0 assay (Promega) was performed, luminescence was read in a luminometer (Envision plate reader) and EC50's was determined. Two different experiments with triplicates in each experiment were performed.

[6] = system: TF-1 cells with knock-ins of CD117 variants; experiment: Inhibition of SCF-dependent proliferation, TF-1 cells with CD117 variant knock-in; assay type: cell-based, human; details: 100 ng/ml SCF; increasing concentrations; 3 days; E73K; all variants tested
Experimental: (§1) SCF-dependent proliferation is another function of CD117. SCF-dependent proliferation was measured as follows: TF-1 cells were seeded at a cell concentration of 150 000 cells/ml in sterile, white cell culture treated plates in RPMI Media+10% FCS. Cells were treated with 100 ng/ml of SCF and a titration of various CD117 antibodies or an isotype control antibody at different concentrations. After 3 days of incubation a CellTiter-Glo 2.0 assay (Promega) was performed and luminescence was read in a luminometer (e.g. Envision or Phera Star plate readers).
CD117 wild-type TF-1 cells were compared to TF1 cells with a E73K knock in. […] Both KI1 and KI2 were obtained upon sorting the edited TF1 cells using the SONY MA900, removing any wild-type and knock out cells from the final subsets, thus yielding high purity of knock in.
(§2) Next, proliferation of the variants was tested with increasing concentrations of RefMab #1 at a constant concentration of SCF (100 ng/ml). TF-1 cells were seeded at a cell concentration of 150 000 cells/ml in sterile, white cell culture treated plates with transparent bottom in RPMI+GlutaMax+10% FCS and a fix concentration of 100 ng/ml SCF in the media, Cells were treated with different concentrations of RefMab #1. After 3 days of incubation a CellTiter-Glo 2,0 assay (Promega) was performed, luminescence was read in a luminometer (Envision plate reader).

[7] = system: variants of CD117; experiment: Blocking of SCF-induced CD117 phosphorylation (Tyr719 ELISA), TF-1 cells with CD117 variants; assay type: cell-based, human; details: 0.5 ug/mL antibody or 500 nM avapritinib; 100 ng/ml SCF 5 minutes
Experimental: (§3) SCF-dependent phosphorylation is another function of CD117. SCF-dependent phosphorylation was measured using TF-1 cells expressing CD117 (as shown in previous experiments). TF-1 cells were seeded at a concentration of 1 million cells/ml in 1 ml of Medium (RPMI1640 supplemented with GlutaMAX+10% heat inactivated FBS) in a 6-well plate. Cells were treated with 0.5 ug/mL antibody or 500 nM avapratinib. Cells were then treated with 100 ng/ml recombinant human SCF (1 mg/ml PeproGMP® Recombinant Human SCF) for 5 minutes, before cell collection. Cells were washed with ice-cold PBS, before resuspending cells in 250 μL Lysis Buffer (Lysis buffer from Signaling containing Protease Inhibitor and Phosphatase Inhibitor). Cells were flash frozen in liquid nitrogen and thawed at 37° C. twice, before freezing them at −80° C. until further usage. Undiluted samples were thawed and processed according to the manufacturers protocol for the PathScan® Phospho-c-Kit (Tyr719) Sandwich ELISA Kit (Cell Signaling). Absorbance (OD_450 nm) was assessed using the Envision (Perkin Elmer).
(§4) TF-1 cells (wild type, and variants E73K, E73Y, D121K, S123F and S123K of CD117) were seeded at a concentration of 1 million cells/mL in 2 ml of Medium (RPMI1640 supplemented with GlutaMAX+10% heat inactivated FBS) in a 6-well plate. Cells were pre-treated with 0.5 μg/ml of antibodies Refmab #1-Ernie or Refmab #1-Bert for 30 minutes, before adding 100 ng/ml recombinant human SCF (1 mg/mL PeproGMP® Recombinant Human SCF) for 5 minutes. Cells were collected, washed once with ice-cold PBS and resuspended in 500 μL Lysis Buffer (Lysis buffer from Signaling containing Protease Inhibitor and Phosphatase Inhibitor). Cells were then flash frozen in liquid nitrogen and thawed at 37° C. twice, before freezing them at −80° C. until further usage. Undiluted samples were thawed and processed according to the manufacturers protocol for the PathScan Phospho-c-Kit (Tyr719) Sandwich ELISA Kit (Cell Signaling) or the Human c-Kit (CD117) ELISA Kit (Abcam). Absorbance (OD_450 nm) was assessed using the Envision (Perkin Elmer).

[8] = system: wild type TF-1 cells; experiment: Inhibition of SCF-dependent proliferation, wild type TF-1 cells; assay type: cell-based, human; details: 100 ng/ml SCF; increasing concentrations; 3 days
Experimental: as §1, §2

[9] = system: CD117; experiment: Blocking of SCF-induced CD117 phosphorylation (Tyr719 ELISA), wild type TF-1 cells; assay type: cell-based, human; details: 0.5 ug/mL antibody or 500 nM avapritinib; 100 ng/ml SCF 5 minutes
Experimental: as §3, §4

[10] = molecular target: T1, human wild-type CD117 (human, UniProt P10721 26-976); experiment: flow cytometry, HEK-293T with wt CD117 vs vector alone, IgG at 0.125 µg/mL
T1 construct: also called wt CD117; KIT
Experimental: Binding of the antibodies to the transfected cells and the optimal assay conditions were evaluated in 384-well format. Detection of cellular expression was measured via high-throughput flow cytometry. Serial dilutions of each antibody were tested for immunoreactivity against cells expressing CD117 or vector alone. The optimal screening concentration for each antibody was determined based on the raw signal values and signal-to-background calculations. Each point represents the mean of four replicates.

[11] = molecular target: T1, human wild-type CD117; experiment: flow cytometry, HEK-293T with wt CD117 vs vector alone, Fab at 1.00 µg/mL

antibody Refmab #1, sequence (as listed by the source): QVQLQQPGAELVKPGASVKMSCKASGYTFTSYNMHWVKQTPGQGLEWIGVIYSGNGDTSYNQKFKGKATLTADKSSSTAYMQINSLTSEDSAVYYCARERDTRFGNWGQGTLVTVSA
antibody Refmab #1, sequence (as listed by the source): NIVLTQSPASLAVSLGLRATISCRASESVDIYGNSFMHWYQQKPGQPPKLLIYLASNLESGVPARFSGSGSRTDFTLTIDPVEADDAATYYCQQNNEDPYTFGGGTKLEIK

Molecule: S123K: variant of human CD117 with substitution S123K
binding of Refmab #1 at 2000 nM variant [1]: No binding | binding to Refmab #1 compared to wild type [2]: particular strong decrease in binding | Binding of Refmab #1 to TF-1 cells expressing the CD117 variant [3]: completely abolished | SCF-dependent phosphorylation at position Tyr719 of CD117 [4]: showed a SCF-dependent phosphorylation | EC50 Average [5]: 3.54 ± 0.23 ng/mL | EC50 Experiment #1 [5]: 3.76 ng/mL | EC50 Experiment #2 [5]: 3.31 ng/mL

Molecule: Cn1cc(-c2cc3c(N4CCN(c5ncc([C@@](C)(N)c6ccc(F)cc6)cn5)CC4)ncnn3c2)cn1 [avapritinib, reference compound]
effect on SCF-dependent proliferation of TF-1 cells with CD117 variants [6]: no proliferation | blocking of SCF-induced phosphorylation, E73K variant [7]: still blocks | effect on SCF-dependent proliferation of wild type TF-1 cells [8]: no proliferation | blocking of SCF-induced phosphorylation, wild type cells [9]: blocked

B2: Refmab #5 Fab fragment (Fab, V domains shown)
VH: EVRLVESEGGLVQPRSSMKLSCTASGFTFSDYYMAWVRQVPEKGLEWVANINYDGSSTYYLDSLKSRFIISRDNAKNILYLQMSSLKSEDTATYYCARGDYYGTTYWYFDVWGTGTTVTVSS
VL: DIQMTQTTSSLSASLGDRVTISCRASQDISNYLNWYQQKPDGTVKLLIYYTSRLQSGVPSRFSGSGSGTDYSLTISNLEQEDIATYFCQQGKKLWSFGGGTKLEIKR
Signal:Background [11]: 7 ratio to background

The next lines start with results.

binding of Refmab #1 at 2000 nM variant [1]: No binding | binding to Refmab #1 compared to wild type [2]: particular strong decrease in binding
Molecule: D121K: variant of human CD117 with substitution D121K
Binding of Refmab #1 to TF-1 cells expressing the CD117 variant [3]: completely abolished | SCF-dependent phosphorylation at position Tyr719 of CD117 [4]: showed a SCF-dependent phosphorylation | EC50 Average [5]: 3.70 ± 0.45 ng/mL | EC50 Experiment #1 [5]: 4.15 ng/mL | EC50 Experiment #2 [5]: 3.25 ng/mL

Signal:Background [10]: 10 ratio to background
B1: Refmab #5 (antibody, V domains shown)
VH: B2 VH
VL: B2 VL

Signal:Background [10]: 7 ratio to background
B3: Refmab #4 (antibody, V domains shown)
VH: EVQLVESGGGLVQPGGSLRLSCAASGFSISVYMMHWVRQAPGKGLEWVASIYPYSGYTYYADSVKGRFTISADTSKNTAYLQMNSLRAEDTAVYYCARYVYHALDYWGQGTLVTVSS
VL: DIQMTQSPSSLSASVGDRVTITCRASQSVSSAVAWYQQKPGKAPKLLIYSASSLYSGVPSRFSGSRSGTDFTLTISSLQPEDFATYYCQQWAVHSLITFGQGTKVEIKR

Signal:Background [11]: 6 ratio to background
B4: Refmab #4 Fab fragment (Fab, V domains shown)
VH: B3 VH
VL: B3 VL
